Reference: US20100081668A1, “POLYMORPHS OF 5--6-CHLORO-1,3-DIHYDRO-2H-INDOL-2-ONE HYDROBROMIDE AND PROCESSES FOR PREPARATION THEREOF” (priority 2006, published 2010)
Structures can show the parent of a compound that is named as a salt. Where two headings read alike, the source gives them in different places. One block for each compound: values may come before it.

What was measured:
[1] = Thermogravimetric (TG) and differential scanning calorimetric (DSC) investigation during heating; format: physicochemical
Excerpt: The Ziprasidone-hydrobromide Form III (hemihydrate) sample was also stable in these circumstances. Thermogravimetry (TG) Parameters: [table] Differential Scanning Calorimetry (DSC) Parameters: [table]

[2] = Exposure of samples to 100% relative humidity at room temperature; format: physicochemical
Excerpt: The Ziprasidone-hydrobromide Form III (hemihydrate) sample was also stable in these circumstances.

[3] = Stability and water uptake from air at normal humidity; format: physicochemical; conditions: normal circumstances
Excerpt: During our experimental work we prepared different ziprasidone hydrobromide compounds and forms. […] In suitable circumstances both the anhydrate and the monohydrate of ziprasidone hydrobromide can be prepared in stable forms, at normal humidity these products can easily be handled, meanwhile their water and active ingredient contents remain constant. The hemihydrate of ziprasidone hydrobromide can also be prepared reproducibly.
1.69 g crystalline 5-{2-[4-(1,2-benzisothiazol-3-yl)-1-piperazinyl]-ethyl}-6-chloro-1,3-dihydro-2H-indol-2-one-hydrobromide anhydrate (ziprasidone-hydrobromide anhydrate) in a form of Ziprasidone-hydrobromide Form II was obtained.

[4] = 31% relative humidity, after 4 hours; starting water content 0.19%; cited from earlier work

- temperature at which water is lost during heating ([1]; TG and DSC, during heating): 40-60 °C
- re-uptake of water after the heat-effect ([1]; after heating, transforms back to monohydrate of the original crystal structure): readily takes back the water
- stability / change of water content in 100% relative humidity area ([2]; monohydrate): does not change significantly
Structure (SMILES): O=C1Cc2cc(CCN3CCN(c4nsc5ccccc45)CC3)c(Cl)cc2N1 [Ziprasidone-hydrobromide Form I, 5-{2-[4-(1,2-benzisothiazol-3-yl)-1-piperazinyl]-ethyl}-6-chloro-1,3-dihydro-2H-indol-2-one-hydrobromide monohydrate]

- stability / change of water content in 100% relative humidity area [2]: does not change significantly
- water absorption from air [3]: does not absorb water from the air
Structure (SMILES): O=C1Cc2cc(CCN3CCN(c4nsc5ccccc45)CC3)c(Cl)cc2N1 [Ziprasidone-hydrobromide Form II, 5-{2-[4-(1,2-benzisothiazol-3-yl)-1-piperazinyl]-ethyl}-6-chloro-1,3-dihydro-2H-indol-2-one-hydrobromide anhydrate]

- stability / change of water content in 100% relative humidity area ([2]; hemihydrate): stable
Structure (SMILES): O=C1Cc2cc(CCN3CCN(c4nsc5ccccc45)CC3)c(Cl)cc2N1 [Ziprasidone-hydrobromide Form III, 5-{2-[4-(1,2-benzisothiazol-3-yl)-1-piperazinyl]-ethyl}-6-chloro-1,3-dihydro-2H-indol-2-one-hydrobromide hemihydrate]

- water absorption from air [3]: adsorbed water rapidly from air
Structure (SMILES): Cl.O=C1Cc2cc(CCN3CCN(c4nsc5ccccc45)CC3)c(Cl)cc2N1 [ziprasidone hydrochloride anhydrate, reference compound]
- water content after exposure to humid air [4]: 2.55%
